# Measurements: patent US9586961B2, “Homopiperazine derivatives as protein tyrosine kinase inhibitors and pharmaceutical use thereof” (LEO PHARMA A/S, priority 2010, dated 2017)
# What was measured:
# Type in all cases: biochemical
# JAK1 = target: T1, JAK1 (Homo sapiens, UniProt P23458); experiment: JAK1 kinase assay (HTRF, inhibition of phosphorylation of a synthetic peptide); conditions: catalytic domain aa 850-1154, GST-tag; 7 μM ATP (Km); read-out: JAK1 kinase inhibitory activity (EC50)
# T1 construct: JAK1 (aa 850-1154) and TYK2 (aa 871-1187) are expressed with an N-terminally fused GST-tag; GST (N); purchased Carna Biosciences, Inc; host or cells: baculovirus expression system
# In short: (§1)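 Baculovirus-expressed human catalytic domains (GST-JAK1, GST-TYK2, His-JAK2, His-JAK3) phosphorylated 1 μM TK substrate-biotin at ATP Km (JAK1 7 μM, JAK2 4 μM, JAK3 2 μM, TYK2 13 μM) in pH 7.0 Hepes for 20-30 min at RT, 0.75% DMSO. EDTA stop, then overnight streptavidin-XL665/cryptate-antibody detection and HTRF read.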
# JAK2 = target: T2, JAK2 (Homo sapiens, UniProt O60674); experiment: JAK2 kinase assay (HTRF, inhibition of phosphorylation of a synthetic peptide); conditions: catalytic domain, His-tag; 4 μM ATP (Km); read-out: JAK2 kinase inhibitory activity (EC50)
# T2 construct: All four purified enzymes contain only the catalytic domain; His (N); purchased Carna Biosciences, Inc; host or cells: baculovirus expression system
# In short: as §1
# JAK3 = target: T3, JAK3 (Homo sapiens, UniProt P52333); experiment: JAK3 kinase assay (HTRF, inhibition of phosphorylation of a synthetic peptide); conditions: catalytic domain, His-tag; 2 μM ATP (Km); read-out: JAK3 kinase inhibitory activity (EC50)
# T3 construct: All four purified enzymes contain only the catalytic domain; His (N); purchased Carna Biosciences, Inc; host or cells: baculovirus expression system
# In short: as §1
# TYK2 = target: T4, TYK2 (Homo sapiens, UniProt P29597); experiment: TYK2 kinase assay (HTRF, inhibition of phosphorylation of a synthetic peptide); conditions: catalytic domain aa 871-1187, GST-tag; 13 μM ATP (Km); read-out: TYK2 kinase inhibitory activity (EC50)
# T4 construct: JAK1 (aa 850-1154) and TYK2 (aa 871-1187) are expressed with an N-terminally fused GST-tag; GST (N); purchased Carna Biosciences, Inc; host or cells: baculovirus expression system
# T4 sequence (P29597 871-1187): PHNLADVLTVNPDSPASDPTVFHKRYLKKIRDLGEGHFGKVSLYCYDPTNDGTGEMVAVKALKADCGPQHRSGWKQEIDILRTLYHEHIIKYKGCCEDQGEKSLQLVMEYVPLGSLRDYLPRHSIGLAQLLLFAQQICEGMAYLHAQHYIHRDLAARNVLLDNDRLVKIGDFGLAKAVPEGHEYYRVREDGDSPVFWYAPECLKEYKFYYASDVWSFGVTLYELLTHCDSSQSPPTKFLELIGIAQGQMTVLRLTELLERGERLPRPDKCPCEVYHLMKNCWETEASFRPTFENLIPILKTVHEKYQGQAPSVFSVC
# In short: as §1
# T2 sequence (O60674 849-1124 limits assumed): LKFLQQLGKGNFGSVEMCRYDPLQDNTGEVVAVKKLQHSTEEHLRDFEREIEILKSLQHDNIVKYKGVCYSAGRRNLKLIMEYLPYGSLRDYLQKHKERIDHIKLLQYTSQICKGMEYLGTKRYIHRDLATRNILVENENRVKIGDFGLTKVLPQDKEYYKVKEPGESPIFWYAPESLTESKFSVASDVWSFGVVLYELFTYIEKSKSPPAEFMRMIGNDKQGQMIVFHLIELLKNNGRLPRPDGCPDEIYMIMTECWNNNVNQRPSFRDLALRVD
# T1 sequence (P23458 850-1154): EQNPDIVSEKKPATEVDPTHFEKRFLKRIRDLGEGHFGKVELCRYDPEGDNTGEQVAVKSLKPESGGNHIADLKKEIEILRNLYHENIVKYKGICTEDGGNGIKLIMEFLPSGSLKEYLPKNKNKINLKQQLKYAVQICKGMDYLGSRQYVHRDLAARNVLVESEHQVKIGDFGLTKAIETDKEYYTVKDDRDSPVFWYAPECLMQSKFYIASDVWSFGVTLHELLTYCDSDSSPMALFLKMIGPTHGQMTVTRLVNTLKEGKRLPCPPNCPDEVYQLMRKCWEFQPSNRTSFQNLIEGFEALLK
# T3 sequence (P52333 822-1111 limits assumed): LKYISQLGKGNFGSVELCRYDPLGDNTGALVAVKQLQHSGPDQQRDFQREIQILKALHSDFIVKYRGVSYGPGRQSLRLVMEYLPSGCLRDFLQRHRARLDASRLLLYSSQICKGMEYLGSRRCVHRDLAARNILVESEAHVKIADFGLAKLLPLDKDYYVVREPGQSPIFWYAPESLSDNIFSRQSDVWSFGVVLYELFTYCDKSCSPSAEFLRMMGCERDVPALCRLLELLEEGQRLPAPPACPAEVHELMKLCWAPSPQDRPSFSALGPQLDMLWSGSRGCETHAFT
EC50 (JAK1) [nM],EC50 (JAK2) [nM],EC50 (JAK3) [nM],EC50 (TYK2) [nM],Compound
< 100,< 100,100 to 1000,100 to 1000,"O=C(Cc1ccc(F)cc1)N1CCN(c2ncnc3[nH]ccc23)CC2(CC2)C1 [Example 158, 2-(4-fluorophenyl)-1-[5-(7H-pyrrolo[2,3-d]pyrimidin-4-yl)-5,8-diazaspiro[2.6]nonan-8-yl]ethanone]"
> 1000,> 1000,> 1000,> 1000,"CC1CN(c2ncnc3[nH]ccc23)CC2(CC2)CN1C(=O)Cc1ccc(C#N)cc1 (stereo not shown) [Example 286, 4-[2-[7-methyl-5-(7H-pyrrolo[2,3-d]pyrimidin-4-yl)-5,8-diazaspiro[2.6]nonan-8-yl]-2-oxo-ethyl]benzonitrile]"
> 1000,100 to 1000,> 1000,> 1000,"CCN(CC)S(=O)(=O)N1CCN(c2ncnc3[nH]ccc23)CC2(CC2)C1 [Example 104, N,N-diethyl-5-(7H-pyrrolo[2,3-d]pyrimidin-4-yl)-5,8-diazaspiro[2.6]nonane-8-sulfonamide]"
< 100,< 100,< 100,100 to 1000,"N#Cc1ccc(CCC(=O)N2CCN(c3ncnc4[nH]ccc34)CC3(CC3)C2)cc1 [Example 115, 4-[3-oxo-3-[5-(7H-pyrrolo[2,3-d]pyrimidin-4-yl)-5,8-diazaspiro[2.6]nonan-8-yl]propyl]benzonitrile]"
< 100,< 100,100 to 1000,100 to 1000,"Cc1cc(CC(=O)N2CCN(c3ncnc4[nH]ccc34)CC3(CC3)C2)no1 [Example 87, 2-(5-methylisoxazol-3-yl)-1-[5-(7H-pyrrolo[2,3-d]pyrimidin-4-yl)-5,8-diazaspiro[2.6]nonan-8-yl]ethanone]"
< 100,< 100,100 to 1000,> 1000,"O=C(Cc1ccc(OC(F)(F)F)cc1)N1CCN(c2ncnc3[nH]ccc23)CC2(CC2)C1 [Example 274, 1-[5-(7H-pyrrolo[2,3-d]pyrimidin-4-yl)-5,8-diazaspiro[2.6]nonan-8-yl]-2-[4-(trifluoromethoxy)phenyl]ethanone]"
> 1000,> 1000,> 1000,> 1000,"CCCCC(=O)Nc1nc(N2CCCN(Cc3ccccc3)C3(CC3)C2)c2cc[nH]c2n1 [Example 283, N-[4-(9-benzyl-5,9-diazaspiro[2.6]nonan-5-yl)-7H-pyrrolo[2,3-d]pyrimidin-2-yl]pentanamide]"
< 100,< 100,< 100,100 to 1000,"O=C(Cc1ccc(Br)cc1)N1CCN(c2ncnc3[nH]ccc23)CC2(CC2)C1 [Example 264, 2-(4-bromophenyl)-1-[5-(7H-pyrrolo[2,3-d]pyrimidin-4-yl)-5,8-diazaspiro[2.6]nonan-8-yl]ethanone]"
< 100,< 100,100 to 1000,100 to 1000,"Cc1[nH]c(C(=O)N2CCCN(c3ncnc4[nH]ccc34)CC23CC3)cc1C#N [Example 278, 2-methyl-5-[5-(7H-pyrrolo[2,3-d]pyrimidin-4-yl)-5,9-diazaspiro[2.6]nonane-9-carbonyl]-1H-pyrrole-3-carbonitrile]"
100 to 1000,100 to 1000,> 1000,> 1000,"CN(CCC#N)S(=O)(=O)N1CCN(c2ncnc3[nH]ccc23)CC2(CC2)C1 [Example 103, N-(2-cyanoethyl)-N-methyl-5-(7H-pyrrolo[2,3-d]pyrimidin-4-yl)-5,8-diazaspiro[2.6]nonane-8-sulfonamide]"
< 100,< 100,100 to 1000,100 to 1000,Cc1ccc(CC(=O)N2CCN(c3ncnc4[nH]ccc34)CC3(CC3)C2)cc1 [Example 263]

# Continued, compound first:
Compound,EC50 (JAK1) [nM],EC50 (JAK2) [nM],EC50 (JAK3) [nM],EC50 (TYK2) [nM]
"CN(C)S(=O)(=O)c1ccc(C(=O)N2CCN(c3ncnc4[nH]ccc34)CC3(CC3)C2)cc1 [Example 33, N,N-dimethyl-4-[5-(7H-pyrrolo[2,3-d]pyrimidin-4-yl)-5,8-diazaspiro[2.6]nonane-8-carbonyl]benzenesulfonamide]",100 to 1000,100 to 1000,100 to 1000,> 1000
"COc1cc(C(=O)N2CCN(c3ncnc4[nH]ccc34)CC3(CC3)C2)ccc1S(N)(=O)=O [Example 53, 2-methoxy-4-[5-(7H-pyrrolo[2,3-d]pyrimidin-4-yl)-5,8-diazaspiro[2.6]nonane-8-carbonyl]benzenesulfonamide]",100 to 1000,100 to 1000,> 1000,> 1000
"N#Cc1ccc(C(=O)N2CCN(c3ncnc4[nH]ccc34)CC3(CC3)C2)cc1F [Example 42, 2-fluoro-4-[5-(7H-pyrrolo[2,3-d]pyrimidin-4-yl)-5,8-diazaspiro[2.6]nonane-8-carbonyl]benzonitrile]",100 to 1000,100 to 1000,100 to 1000,> 1000
"NS(=O)(=O)c1ccc(C(=O)N2CCN(c3ncnc4[nH]ccc34)CC3(CC3)C2)cc1Cl [Example 32, 2-chloro-4-[5-(7H-pyrrolo[2,3-d]pyrimidin-4-yl)-5,8-diazaspiro[2.6]nonane-8-carbonyl]benzenesulfonamide]",< 100,100 to 1000,100 to 1000,> 1000
"N#CCOc1cccc(C(=O)N2CCN(c3ncnc4[nH]ccc34)CC3(CC3)C2)c1 [Example 14, 2-[3-[5-(7H-pyrrolo[2,3-d]pyrimidin-4-yl)-5,8-diazaspiro[2.6]nonane-8-carbonyl]phenoxy]acetonitrile]",100 to 1000,100 to 1000,> 1000,> 1000
"N#Cc1cccc(C(=O)N2CCCN(c3ncnc4[nH]ccc34)CC23CC3)c1 [Example 57, 3-[5-(7H-pyrrolo[2,3-d]pyrimidin-4-yl)-5,9-diazaspiro[2.6]nonane-9-carbonyl]benzonitrile]",100 to 1000,< 100,100 to 1000,100 to 1000
"NS(=O)(=O)c1ccc(CC(=O)N2CCN(c3ncnc4[nH]ccc34)CC3(CC3)C2)cc1 [Example 20, 4-[2-oxo-2-[5-(7H-pyrrolo[2,3-d]pyrimidin-4-yl)-5,8-diazaspiro[2.6]nonan-8-yl]ethyl]benzenesulfonamide]",< 100,< 100,< 100,100 to 1000
"N#Cc1cccc(CC(=O)N2CCN(c3ncnc4[nH]ccc34)CCC23CC3)c1 [Example 47, 3-[2-oxo-2-[6-(7H-pyrrolo[2,3-d]pyrimidin-4-yl)-6,9-diazaspiro[2.6]nonan-9-yl]ethyl]benzonitrile]",> 1000,> 1000,> 1000,> 1000
"O=C(Cc1ccc(I)cc1)N1CCN(c2ncnc3[nH]ccc23)CC2(CC2)C1 [Example 66, 2-(4-iodophenyl)-1-[5-(7H-pyrrolo[2,3-d]pyrimidin-4-yl)-5,8-diazaspiro[2.6]nonan-8-yl]ethanone]",< 100,< 100,100 to 1000,100 to 1000
"CNS(=O)(=O)c1csc(C(=O)N2CCN(c3ncnc4[nH]ccc34)CC3(CC3)C2)c1 [Example 28, N-methyl-5-[5-(7H-pyrrolo[2,3-d]pyrimidin-4-yl)-5,8-diazaspiro[2.6]nonane-8-carbonyl]thiophene-3-sulfonamide]",100 to 1000,< 100,100 to 1000,> 1000
"N#CCOc1ccc(C(=O)N2CCN(c3ncnc4[nH]ccc34)CC3(CC3)C2)cc1 [Example 15, 2-[4-[5-(7H-pyrrolo[2,3-d]pyrimidin-4-yl)-5,8-diazaspiro[2.6]nonane-8-carbonyl]phenoxy]acetonitrile]",100 to 1000,100 to 1000,100 to 1000,> 1000
"N#Cc1cccc(CC(=O)N2CCN(c3ncnc4[nH]ccc34)CC3(CC3)C2)c1 [Example 9, 3-{2-oxo-2-[8-(7H-pyrrolo[2,3-d]pyrimidin-4-yl)-5,8-diazaspiro[2.6]non-5-yl]ethyl}benzonitrile]",100 to 1000,< 100,100 to 1000,> 1000
"NS(=O)(=O)c1cccc(C(=O)N2CCN(c3ncnc4[nH]ccc34)CC3(CC3)C2)c1 [Example 73, 3-[5-(7H-pyrrolo[2,3-d]pyrimidin-4-yl)-5,8-diazaspiro[2.6]nonane-8-carbonyl]benzenesulfonamide]",100 to 1000,100 to 1000,100 to 1000,> 1000
"O=C(CCC(F)(F)F)N1CCN(c2ncnc3[nH]ccc23)CCC12CC2 [Example 45, 4,4,4-trifluoro-1-[6-(7H-pyrrolo[2,3-d]pyrimidin-4-yl)-6,9-diazaspiro[2.6]nonan-9-yl]butan-1-one]",100 to 1000,100 to 1000,100 to 1000,> 1000
